Experiments:
Format in all cases: physicochemical
[1] = Quantum yield determination (quinine sulphate standard); details: for quantum yield Φ: with reference to quinine sulphate, 4 micromolar oxine derivative, 50 mM MgCl2, 20 mM HEPES (pH 7.4)
Method: (§1) This example describes the synthesis and screening of Oxn derivatives. A selection of substituted hydroxyquinoline derivatives related to a sulfonamide derivative (FIG. 1, complex 1), but bearing different acceptor groups at position 5 (FIG. 1, complexes 2-7) was prepared using previously described methods. These analogs were screened for fluorescence in the presence of excess Mg^2+ and under buffered aqueous conditions. FIG. 1 lists fluorescence data for compounds 1-7. Spectra were acquired in 150 mM NaCl, 50 mM HEPES (pH 7.4), 25° C. with 10 μM 1-7 and 10 mM MgCl2. Excitation of all species is provided at λmax […].
(§2) The fluorophores were then qualitatively compared in a 96-well plate (transilluminator; λex=365 nm) to identify promising compounds (FIG. 3) and were further subjected to quantitative analysis in a fluorescence plate reader (FIG. 8). In FIG. 8, the quantum yields of selected fluorophores were calculated with reference to quinine sulphate (in […] H2SO4) as a standard (vide infra). Compound 10u has ε355=7905 cm^−1M^−1 (vide infra). The excitation and emission wavelengths of the triazole products (10b-v, λex=360-375 nm, λem=510-530 nm) were improved compared to those for Sox (1, λex=360 nm, λem=485 nm, Φ=0.342, ε355=8,247 cm^−1M^−1). Based on the preliminary screening, selected targets were then synthesized in larger quantities and the quantum yields of the corresponding hydroxyquinoline derivatives were determined. Compared to 10a (Φ=0.033) a 3.5-fold improvement in quantum yield was obtained in the case of the bromide 10u (λex=375 nm, λem=525 nm, Φ=0.111, ε355=7,905 cm^−1M^−1). In view of the fluorescent properties of this derivative, it was chosen for use as a chelation-sensitive fluorophore to prepare probes for mitogen-activated protein kinase-activated protein kinase-2 (MK2), and sarcoma kinase (Src), used as models of Ser/Thr and Tyr kinases, respectively. For the purposes of comparison, the analogous fluorescent peptides containing the original Sox chromophore were also prepared as previously described.
c. Quantum yield determination. The quantum yield (Φ) was determined in 20 mM HEPES (pH 7.4). Quinine sulphate dihydrate (QS, Fluka, puriss. for fluorescence) in 0.1 M H2SO4 was used as a standard (Φ=0.55). A 4 micromolar solution of the corresponding oxine derivative with 50 mM MgCl2 was compared to a 4 micromolar solution of quinine sulfate to assure that the absorbance (A360) is less than 0.05 at identical excitation wavelengths. The following equation was used to calculate the quantum yield: Φ=IAQSΦQS/AIQS where A=A360 and I=integrated fluorescence intensity (λex=360 nm). The calculated Φ assumes that the refractive index of 0.1 M H2SO4 is identical to that of 20 mM HEPES (pH 7.4). […]

[2] = Observation of oxidation of the chromophore
[3] = Fluorescence analysis of 8-hydroxyquinoline derivatives in the presence of excess Mg2+ under buffered aqueous conditions; details: 10 μM compound; for λem / λex: 10 mM MgCl2, 150 mM NaCl, 50 mM HEPES (pH 7.4), 25° C.
Method: as §1
Azide 8 (FIG. 2) was prepared using previously reported methods. […] In the presence of catalytic Cu(I) and ascorbic acid, 8 reacted readily at room temperature with 1-ethynylcyclohexene (9a) in DMF/4-methylpiperidine (8:2) to afford the cycloaddition product 10a in essentially quantitative yield. […] The fluorescence properties of the triazole-substituted quinolines were investigated for the products from the 1,3-dipolar cycloaddition reaction of 8 with 21 additional alkynes (9b-v) (FIG. 2).
as §2
Fluorescence Experiments. • a. Fluorescence analysis of 8-hydroxyquinoline click products. A 96-well microtier plate was used in the experiments for preliminary examination of fluorescence properties. The overall volume in each well was 200 microliters. Individual reactions contained the crude product from the click chemistry reaction (10 micromolar dissolved in DMSO), MgCl2 (10 mM), NaCl (150 mM) and HEPES (50 mM) at 25° C. (pH 7.4). The fluorescence spectra were recorded with fixed excitation at 370 nm and emission at 525 nm. Based on the preliminary screening, selected products were then synthesized in larger quantities and the quantum yields of the corresponding hydroxyquinoline derivatives were determined.

[4] = Extinction coefficient determination
Method: 1. Stock solutions of the peptides were prepared in doubly deionized water and concentrations were determined by UV-Vis (based on the determined extinction coefficient of the fluorophore moiety, either 1 (Sox), ε355=8247 M^−1 cm^−1 or 10u (Clk), ε360=7905 M^−1 cm^−1 in 0.1 M NaOH with 1 mM Na2EDTA). An average of the values from three separate solutions, each prepared using a different volume of the stock solution, was read on UV-Vis spectrophotometer. Purified peptide stock solutions could be stored at 4° C. for at least 6 months or −20° C. for longer periods.
b. Extinction coefficient determination. Extinction coefficients of 1 and 10u were measured in 50 mM HEPES (pH 7.0), 150 mM NaCl. The εmax values were determined by plotting absorbance at 360 nm versus concentration for four chromophore solutions with concentrations between 20 and 60 micromolar and including 1 mM MgCl2.

quantum yield compared with 1 (in words) ([1]; 10 μM compound, 10 mM MgCl2, pH 7.4) | stability of the aldehyde group (in words) [2] | excitation and emission wavelengths compared with 1 (in words) ([3]; 10 mM MgCl2, pH 7.4) | quantum yield Φ [1] | λem [3] [nm] | λex [3] [nm] | improvement in quantum yield compared to 10a ([1]; compared to 10a (Φ=0.033)) [fold] | extinction coefficient ε355 ([4]; Example 1, 50 mM HEPES (pH 7.0), 150 mM NaCl, 1 mM MgCl2) | extinction coefficient ε360 ([4]; in 0.1 M NaOH with 1 mM Na2EDTA) [M⁻¹ cm⁻¹] | SMILES
improved quantum yield | readily oxidized | shorter λem |  |  |  |  |  |  | Cc1ccc2c(C=O)ccc(O)c2n1 [Compound 2, 5-Carbaldehyde-8-Hydroxy-2-methylquinoline, reference compound]
 |  |  | 0.033 | 522 | 371 |  |  |  | Oc1ccc(-n2cc(C3=CCCCC3)nn2)c2cccnc12 [Compound 10a, 8-Hydroxy-5-(4-cyclohexenyl-1H-1,2,3-triazol-1-yl)quinoline]
 |  |  | 0.111 | 525 | 375 | 3.5 | 7,905 cm^−1M^−1 | 7905 | Oc1ccc(-n2cc(-c3ccc(Br)cc3)nn2)c2cccnc12 [Compound 10u, 8-Hydroxy-5-(4-(4-bromophenyl)-1H-1,2,3-triazol-1-yl)quinoline]

From patent publication US8409820B2, “Kinase sensors” (Massachusetts Institute of Technology, priority 2009, dated 2013)
